{"source": "BindingDB's records for doi:10.1021/jm990095j", "about": "(Medivir, 1999)", "assay_in_all_cases": "HIV-1 RT Assay", "key": {"[1]": {"biological_target": "T1, Gag-Pol polyprotein [588-1027]/[588-1147] (Human immunodeficiency virus 1, UniProt P04585)", "T1 construct": "588-1027; 588-1147"}, "[2]": {"biological_target": "T2, Gag-Pol polyprotein [588-1027,K690N]/[588-1147,K690N] (Human immunodeficiency virus 1, UniProt P04585, K690N)", "T2 construct": "588-1027; 588-1147"}, "[3]": {"biological_target": "T3, Gag-Pol polyprotein [588-1127,Y768C]/[588-1147,Y768C] (Human immunodeficiency virus 1, UniProt P04585, Y768C)", "T3 construct": "588-1127; 588-1147"}}, "data": [{"smiles": "CN(C)c1ccc(F)c(CCNC(=O)Nc2ccc(Br)cn2)c1F", "values": [{"measurement": "IC50", "setting": "[1]; pH 7.8, 37 °C", "result": 25, "unit": "nM"}, {"measurement": "IC50", "setting": "[2]; pH 7.8, 37 °C", "result": "> 2500", "unit": "nM"}]}, {"smiles": "CCOc1ccc(F)c(CCNC(=O)Nc2ccc(Br)cn2)c1Cl", "values": [{"measurement": "IC50", "setting": "[1]; pH 7.8, 37 °C", "result": 4, "unit": "nM"}, {"measurement": "IC50", "setting": "[2]; pH 7.8, 37 °C", "result": "> 2400", "unit": "nM"}]}, {"smiles": "COc1ccc(OC)c(CCNC(=O)Nc2ccc(Cl)cn2)c1F", "note": "[1-(5-chloropyridin-2-yl)-3-[2-(2-fluoro-3,6-dimethoxyphenyl)ethyl]urea]", "values": [{"measurement": "IC50", "setting": "[1]; pH 7.8, 37 °C", "result": 3, "unit": "nM"}]}, {"smiles": "COc1c(C(C)=O)ccc(F)c1CCNC(=O)Nc1ccc(Cl)cn1", "note": "[1-(5-chloropyridin-2-yl)-3-[2-(3-acetyl-6-fluoro-2-methoxyphenyl)ethyl]urea]", "values": [{"measurement": "IC50", "setting": "[2]; pH 7.8, 37 °C", "result": "> 2700", "unit": "nM"}]}, {"smiles": "COc1ccc(C(C)=O)c(F)c1CCNC(=O)Nc1ccc(Cl)cn1", "note": "[N-[2-(3-Acetyl-2-fluoro-6-methoxyphenethyl)]-N-[2-(5-chloropyridy)]urea]", "values": [{"measurement": "IC50", "setting": "[2]; pH 7.8, 37 °C", "result": "> 2700", "unit": "nM"}]}, {"smiles": "O=C(Nc1ccc(Cl)cn1)NC1CC1c1c(F)ccc(O)c1Cl", "note": "(stereo not drawn) [N-[cis-2-(2-Chloro-6-fluoro-3-hydroxyphenyl)cyclopropyl]-N-[2-(5-chloropyridyl)]urea]", "values": [{"measurement": "IC50", "setting": "[2]", "result": "> 2700", "unit": "nM"}]}, {"smiles": "CCC(=O)c1ccc(F)c(C2CC2NC(=O)Nc2ccc(C#N)cn2)c1O", "note": "(stereo not drawn) [N-[cis-2-(6-Fluoro-2-hydroxy-3-propionylphenyl)cyclopropyl]-N-[2-(5-cyanopyridyl)]urea]", "values": [{"measurement": "IC50", "setting": "[2]", "result": 97, "unit": "nM"}]}, {"smiles": "COc1ccc2c(c1)N(C(=O)OC(C)C)[C@@H](CSC)C(=S)N2", "note": "[propan-2-yl (2S)-7-methoxy-2-[(methylsulfanyl)methyl]-3-sulfanylidene-1,2,3,4-tetrahydroquinoxaline-1-carboxylate]", "values": [{"measurement": "IC50", "setting": "[1]", "result": 8, "unit": "nM"}, {"measurement": "IC50", "setting": "[2]", "result": 56, "unit": "nM"}, {"measurement": "IC50", "setting": "[3]", "result": 9, "unit": "nM"}]}]}
